Laboratory results reported in ChEMBL document CHEMBL1201862, “PubChem BioAssay data set” (2004).
Calls of active or inactive are those of the source. For most assays here, no stated cut-off is given here; in the data, actives have a measured EC50 and inactives only a lower limit.

Biological target: T1, Cytochrome P450 1A2 (Homo sapiens, UniProt P05177);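 further: PubChem cytochrome P450 panel assay, CYP1A2 panel member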
T1 sequence (P05177 whole entry): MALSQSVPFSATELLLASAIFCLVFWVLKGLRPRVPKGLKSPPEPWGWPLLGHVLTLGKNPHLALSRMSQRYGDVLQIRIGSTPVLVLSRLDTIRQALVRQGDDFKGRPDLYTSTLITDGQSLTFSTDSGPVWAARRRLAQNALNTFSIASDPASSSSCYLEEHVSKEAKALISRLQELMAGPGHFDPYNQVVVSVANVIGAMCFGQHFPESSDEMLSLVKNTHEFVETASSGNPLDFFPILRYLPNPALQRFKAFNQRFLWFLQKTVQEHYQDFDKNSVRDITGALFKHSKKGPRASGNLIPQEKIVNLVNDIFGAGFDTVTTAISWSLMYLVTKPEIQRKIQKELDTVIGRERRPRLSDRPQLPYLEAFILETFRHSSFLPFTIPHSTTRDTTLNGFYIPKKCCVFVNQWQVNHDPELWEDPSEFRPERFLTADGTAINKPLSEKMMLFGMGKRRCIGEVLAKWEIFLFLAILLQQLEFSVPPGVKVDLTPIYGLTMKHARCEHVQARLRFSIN

| Compound | AC50 |
| --- | --- |
| CCSc1nnc(NC(=O)COc2ccc3ccccc3c2)s1 | 10 µM (inconclusive) |
| COc1ccc(OCC(=O)Nc2ccc(Cl)cc2C(=O)c2ccccc2)cc1 | 3.55 µM (inconclusive) |
| O=S(=O)(O)c1cc(/N=N\c2cccc3ccccc23)c(O)c2ncccc12 | 0.631 µM (inconclusive) |
| O=C(CC(NS(=O)(=O)c1ccc(Cl)cc1)c1ccco1)NCc1ccco1 (configuration not stated) | 25.1 µM (inconclusive) |
| O=C(c1ccncc1)N1CCC2(CCCN(c3cccc(-c4ccccc4)c3)C2)CC1 | 12.6 µM (inconclusive) |
| COc1ccccc1CN1CC[C@@]2(CCCN(C(=O)c3cc(C(F)(F)F)cc(C(F)(F)F)c3)C2)C1 | 15.8 µM (inconclusive) |
| CCSc1nc2nc(C)cc(C)n2n1 | 12.6 µM (inconclusive) |
| OCCCNc1[nH]cnc2nncc1-2 | 6.31 µM (inconclusive) |
| CCCCC(C=O)NC(=O)C(CC(C)C)NC(=O)OCc1ccccc1 (configuration not stated) | 31.6 µM (inconclusive) |
| CCn1c(SCC(=O)N/N=C/C=C\c2ccccc2[N+](=O)[O-])nnc1-c1ccccc1 | 28.2 µM (inconclusive) |
| CN(C)CCCN1c2ccccc2C(C)(C)c2ccccc21 [DIMETACRINE] | 5.01 µM (inconclusive) |

Test system: Streptococcus sp. 'group A'
Assay: growth inhibition of control SK(-) GAS strain, dose response, counter-screen for streptokinase expression inhibitor project, luminescence, kanamycin, BacTiterGlo, confirmation (AID 1900)
Assay type: functional, organism-based

| Compound | EC50 |
| --- | --- |
| CC(C)(C)c1ccc(C(=O)NCc2nnc(SCC(=O)NC3CCCC3)o2)cc1 | > 150 µM (not active) |
| COc1ccccc1NC(=O)NCCCCc1ccccc1 | > 150 µM (not active) |
| Nc1ccc(-c2ccc(N)cc2C(F)(F)F)c(C(F)(F)F)c1 | 31 µM (active) |
| O=C(COc1ccccc1)Nc1cccc(-c2nc3ccccc3[nH]2)c1 | 22.7 µM (active) |
| Cc1cc(C)cc(NC(S)=NCCSc2ccc(Cl)cc2)c1 | 11.8 µM (active) |
| CN(C)Cc1nc2ccccc2c(=O)n1Cc1nc(-c2cc3ccccc3o2)cs1 | 10.4 µM (active) |
| Oc1nc2cc3c(cc2cc1CN(CCc1ccccc1)Cc1nnnn1CC1CCCO1)OCO3 (configuration not stated) | > 150 µM (not active) |
| COc1ccc(C2c3ccsc3CCN2C(=O)C(C)(C)C)cc1 (configuration not stated) | > 150 µM (not active) |
| Cc1cc2occ(CC(=O)NC3=NCCS3)c2cc1C(C)C | 71.7 µM (active) |
| Cc1ccc(C(=O)N2CCCC(CCC(=O)NCc3ccccc3F)C2)cn1 (configuration not stated) | > 150 µM (not active) |
| O=C(Nc1cccc(NC(=O)c2cccnc2)c1)c1ccccc1 | > 150 µM (not active) |
| COc1cccc(-c2nnc(NC(=O)c3ccc(S(=O)(=O)N4CC(C)OC(C)C4)cc3)o2)c1 (configuration not stated) | 1.3 µM (active) |
| Cc1c(Cl)cnn1CC(=O)NC1C(=O)N2C(C(=O)O)=C(CSc3nnnn3C)CSC12 (configuration not stated) | 0.1 µM (active) |
| OC(COCC(F)(F)C(F)(F)C(F)(F)C(F)F)Cn1c2ccc(Cl)cc2c2cc(Cl)ccc21 (configuration not stated) | 2.2 µM (active) |
| CCC[C@]12CN3C[C@](CCC)(CN(C1)C3c1ccccn1)C2=O (some centres not stated) | 43.8 µM (active) |

Biological target: T2, Streptokinase A (Streptococcus pyogenes serotype M1, UniProt P10520)
T2 sequence (P10520 whole entry): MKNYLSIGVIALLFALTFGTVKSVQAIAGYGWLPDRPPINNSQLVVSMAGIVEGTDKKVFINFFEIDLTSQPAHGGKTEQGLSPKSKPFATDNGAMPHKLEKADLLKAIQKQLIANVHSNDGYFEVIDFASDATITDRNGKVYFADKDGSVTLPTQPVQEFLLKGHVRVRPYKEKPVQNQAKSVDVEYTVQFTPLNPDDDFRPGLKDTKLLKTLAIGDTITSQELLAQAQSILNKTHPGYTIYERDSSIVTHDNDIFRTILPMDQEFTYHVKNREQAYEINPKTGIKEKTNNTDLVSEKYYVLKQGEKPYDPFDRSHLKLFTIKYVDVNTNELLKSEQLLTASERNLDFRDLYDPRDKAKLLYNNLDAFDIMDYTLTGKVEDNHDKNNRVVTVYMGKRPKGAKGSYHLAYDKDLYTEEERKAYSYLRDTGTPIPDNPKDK
Assay: S. pyogenes streptokinase expression inhibitors, potency, dose response, plasminogen activation absorbance, OD405 (AID 1914);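 further: secreted streptokinase activity via plasminogen activation per viability signal from cell pellet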
Assay type: functional, Streptococcus pyogenes M1 GAS

| Compound | EC50 |
| --- | --- |
| CC(C)(C)c1ccc(C(=O)NCc2nnc(SCC(=O)NC3CCCC3)o2)cc1 | > 150 µM (inconclusive) |
| COc1ccccc1NC(=O)NCCCCc1ccccc1 | > 150 µM (not active) |
| Nc1ccc(-c2ccc(N)cc2C(F)(F)F)c(C(F)(F)F)c1 | 76.8 µM (active) |
| O=C(COc1ccccc1)Nc1cccc(-c2nc3ccccc3[nH]2)c1 | > 150 µM (not active) |
| Cc1cc(C)cc(NC(S)=NCCSc2ccc(Cl)cc2)c1 | 15.9 µM (active) |
| CN(C)Cc1nc2ccccc2c(=O)n1Cc1nc(-c2cc3ccccc3o2)cs1 | 104 µM (active) |
| O=c1[nH]c2cc3c(cc2cc1CN(CCc1ccccc1)Cc1nnnn1CC1CCCO1)OCO3 (configuration not stated) | > 150 µM (not active) |
| COc1ccc(C2c3ccsc3CCN2C(=O)C(C)(C)C)cc1 (configuration not stated) | > 150 µM (not active) |
| Cc1cc2occ(CC(=O)NC3=NCCS3)c2cc1C(C)C | > 150 µM (not active) |
| Cc1ccc(C(=O)N2CCCC(CCC(=O)NCc3ccccc3F)C2)cn1 (configuration not stated) | > 150 µM (not active) |
| O=C(Nc1cccc(NC(=O)c2cccnc2)c1)c1ccccc1 | > 150 µM (not active) |

Test system: Streptococcus
Assay: Group A Streptococcus viability loss, dose response, counter-screen for streptokinase expression inhibitor project, luminescence, BacTiterGlo (AID 1915);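 further: potency for reduction of bacterial viability or growth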
Assay type: functional, organism-based

| Compound | EC50 |
| --- | --- |
| CC(C)(C)c1ccc(C(=O)NCc2nnc(SCC(=O)NC3CCCC3)o2)cc1 | > 150 µM (not active) |
| COc1ccccc1NC(=O)NCCCCc1ccccc1 | > 150 µM (not active) |
| Nc1ccc(-c2ccc(N)cc2C(F)(F)F)c(C(F)(F)F)c1 | > 150 µM (not active) |
| O=C(COc1ccccc1)Nc1cccc(-c2nc3ccccc3[nH]2)c1 | > 150 µM (not active) |
| Cc1cc(C)cc(NC(S)=NCCSc2ccc(Cl)cc2)c1 | > 150 µM (not active) |
| CN(C)Cc1nc2ccccc2c(=O)n1Cc1nc(-c2cc3ccccc3o2)cs1 | > 150 µM (not active) |
| Oc1nc2cc3c(cc2cc1CN(CCc1ccccc1)Cc1nnnn1CC1CCCO1)OCO3 (configuration not stated) | > 150 µM (not active) |
| COc1ccc(C2c3ccsc3CCN2C(=O)C(C)(C)C)cc1 (configuration not stated) | > 150 µM (not active) |
| Cc1cc2occ(CC(=O)NC3=NCCS3)c2cc1C(C)C | > 150 µM (not active) |
| Cc1ccc(C(=O)N2CCCC(CCC(=O)NCc3ccccc3F)C2)cn1 (configuration not stated) | > 150 µM (not active) |
| O=C(Nc1cccc(NC(=O)c2cccnc2)c1)c1ccccc1 | > 150 µM (not active) |
| COc1cccc(-c2nnc(NC(=O)c3ccc(S(=O)(=O)N4CC(C)OC(C)C4)cc3)o2)c1 (configuration not stated) | 2.15 µM (active) |
| Cc1c(Cl)cnn1CC(=O)NC1C(=O)N2C(C(=O)O)=C(CSc3nnnn3C)CSC12 (configuration not stated) | 0.283 µM (active) |
| OC(COCC(F)(F)C(F)(F)C(F)(F)C(F)F)Cn1c2ccc(Cl)cc2c2cc(Cl)ccc21 (configuration not stated) | 2.62 µM (active) |
| CCC[C@]12CN3C[C@](CCC)(CN(C1)C3c1ccccn1)C2=O (some centres not stated) | > 150 µM (not active) |

Test system: not listed separately
Assay: cytotoxicity toward NIH3T3 fibroblasts, dose response, counter-screen, cell-based, ATP luminescence, mouse fibroblasts (AID 2010);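 further: cells exposed to compound for about 90 hours before reading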
Assay type: functional

| Compound | EC50 |
| --- | --- |
| CN1CCc2c(sc(NC(=O)c3cc4cc([N+](=O)[O-])ccc4s3)c2C(N)=O)C1 | 14.3 µM (active) |
| COc1ccc(Nc2nc(NC(C)(C)C)nc(N3CCOCC3)n2)c(OC)c1 | > 60 µM (not active) |
| CCOC(=O)c1ccc(NC(=S)N(Cc2cccnc2)Cc2ccco2)cc1 | > 60 µM (not active) |
| O=C(c1cc(COc2cccc3cnccc23)on1)N1CCC(c2ccccc2Cl)C1 (configuration not stated) | > 60 µM (not active) |
| Cc1c([N+](=O)[O-])nnn1-c1cc(Cl)cc(Cl)c1 | > 30 µM (not active) |
| Cc1cc(C)c(-c2csc(NC(=O)COC(=O)c3ccc4c(c3)OCO4)n2)c(C)c1 | > 60 µM (not active) |
| CN(C)Cc1nc2ccccc2c(=O)n1Cc1nc(-c2cc3ccccc3o2)cs1 | > 30 µM (not active) |
| Cc1ccc2nc(N(CCCN(C)C)C(=O)c3ccc(Br)s3)sc2c1 | > 60 µM (not active) |
| O=[N+]([O-])c1ccc(N2CCN(S(=O)(=O)c3ccc(Cl)cc3)CC2)cc1NCc1cccnc1 | 15.4 µM (active) |
| CCOC(=O)N1CCN(c2cc(N3CCN(CC)CC3)c(F)cc2[N+](=O)[O-])CC1C (configuration not stated) | > 60 µM (inconclusive) |
| Cc1ccc(-n2c(SCC(=O)c3c(N)n(C)c(=O)n(C)c3=O)nc3sc4c(c3c2=O)CCCC4)c(C)c1 | 50.5 µM (active) |
| CCOc1ccccc1CN1CCN(Cc2[nH]c3ccccc3c2C)CC1CCO (configuration not stated) | > 60 µM (not active) |
| COc1cc(/C=C(/C#N)c2ccc(C)cc2)ccc1Oc1ccc([N+](=O)[O-])cn1 | > 60 µM (not active) |
| CC1=C/C(=N\NC(=S)NCc2ccccc2)CC1 | > 60 µM (not active) |
| N#CC1=C(N)OC2=C(C(=O)CC(c3ccccc3)C2)C1c1cccnc1 (configuration not stated) | > 30 µM (not active) |

Test system: not listed separately
Assay: inhibitors of intracellular T. cruzi replication, confirmation, NIH3T3 host cells, beta-gal luminescence (AID 2044);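 further: intracellular parasites grown in NIH/3T3 mouse fibroblasts as host cells; luminescent beta-galactosidase reporter signal from transgenic T. cruzi replicating inside host cells; inhibitors lower the luminescence signal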
Assay type: functional, cell-based

| Compound | EC50 |
| --- | --- |
| CN1CCc2c(sc(NC(=O)c3cc4cc([N+](=O)[O-])ccc4s3)c2C(N)=O)C1 | 1.73 µM (active) |
| COc1ccc(Nc2nc(NC(C)(C)C)nc(N3CCOCC3)n2)c(OC)c1 | 1.59 µM (active) |
| CCOC(=O)c1ccc(NC(=S)N(Cc2cccnc2)Cc2ccco2)cc1 | 0.631 µM (active) |
| O=C(c1cc(COc2cccc3cnccc23)on1)N1CCC(c2ccccc2Cl)C1 (configuration not stated) | 1.57 µM (active) |
| Cc1c([N+](=O)[O-])nnn1-c1cc(Cl)cc(Cl)c1 | 1.86 µM (active) |
| Cc1cc(C)c(-c2csc(NC(=O)COC(=O)c3ccc4c(c3)OCO4)n2)c(C)c1 | 4.69 µM (active) |
| CN(C)Cc1nc2ccccc2c(=O)n1Cc1nc(-c2cc3ccccc3o2)cs1 | 2.57 µM (active) |
| Cc1ccc2nc(N(CCCN(C)C)C(=O)c3ccc(Br)s3)sc2c1 | 0.102 µM (active) |
| O=[N+]([O-])c1ccc(N2CCN(S(=O)(=O)c3ccc(Cl)cc3)CC2)cc1NCc1cccnc1 | 1.38 µM (active) |
| CCOC(=O)N1CCN(c2cc(N3CCN(CC)CC3)c(F)cc2[N+](=O)[O-])CC1C (configuration not stated) | 0.184 µM (active) |
| Cc1ccc(-n2c(SCC(=O)c3c(N)n(C)c(=O)n(C)c3=O)nc3sc4c(c3c2=O)CCCC4)c(C)c1 | 2.1 µM (active) |
| CCOc1ccccc1CN1CCN(Cc2[nH]c3ccccc3c2C)CC1CCO (configuration not stated) | 0.204 µM (active) |
| COc1cc(/C=C(/C#N)c2ccc(C)cc2)ccc1Oc1ccc([N+](=O)[O-])cn1 | 1.54 µM (active) |
| CC1=C/C(=N\NC(=S)NCc2ccccc2)CC1 | 2.88 µM (active) |
| N#CC1=C(N)OC2=C(C(=O)CC(c3ccccc3)C2)C1c1cccnc1 (configuration not stated) | 0.111 µM (active) |
